In patent US9944740B2, “Sugar containing, amphiphilic copolymers” (REGENTS OF THE UNIVERSITY OF MINNESOTA, priority 2013, dated 2018):
Converted amounts (≈) assume the structure as drawn.

Experiments:
[1] = Probucol dissolution study (spray dried dispersions or crystalline API) in phosphate buffer pH 6.5 with simulated intestinal fluid powder, 37° C., HPLC; assay type: physicochemical; conditions: pH 6.5, fassif, thermodynamic from solid
Description: (§1) Samples (either spray dried dispersions or crystalline API as received) were weighed into 2.0 mL conical microcentrifuge tubes in duplicate. Phosphate buffer solution (82 mM sodium chloride, 20 mM sodium phosphate dibasic, 47 mM potassium phosphate monobasic, 0.5 wt % simulated intestinal fluid powder, pH 6.5) at 37° C. was added in an amount that would produce a final concentration of drug of 1000 mg/L if all material was fully dissolved (e.g., 7.2 mg of spray dried dispersion consisting of 1.8 mg griseofulvin and 5.4 mg polymer was diluted with 1.8 mL buffer solution). Samples were vortexed 1 min and set in an isothermal aluminum sample holder set at 37° C. At each time point, samples were centrifuged 1 min at >13,000×g (g=gravitational force on earth), and a 50 μl aliquot was removed and diluted with 250 μl methanol. The samples were again vortexed 30 s and held at 37° C. until the next time point. Drug concentration in each aliquot was determined by reverse phase HPLC.
Probucol and phenytoin concentrations were quantified using a Agilent 1260 Infinity Quaternary HPLC equipped. […] A 10 μL aliquot of sample was injected, and the column effluent was detected at 241 nm for probucol (eluted at 2.90 min) and 225 nm for phenytoin (eluted at 1.40 min) with a UV detector (1260 Infinity Multiple Wavelength Detector, Agilent). […]

[2] = Phenytoin dissolution study (spray dried dispersions or crystalline API) in phosphate buffer pH 6.5 with simulated intestinal fluid powder, 37° C., HPLC; assay type: physicochemical; conditions: crystalline phenytoin
Description: as §1
Probucol and phenytoin concentrations were quantified using a Agilent 1260 Infinity Quaternary HPLC equipped. The HPLC consisted of a reversed-phase EC-C18 column (Poroshell 120, 4.6×50 mm, 2.7 μm, Agilent, USA). The mobile phase was acetonitrile: water 96:4 for probucol and acetonitrile: water 40:60 for phenytoin, and the flow rate was 1.0 mL/min. A 10 μL aliquot of sample was injected, and the column effluent was detected at 241 nm for probucol (eluted at 2.90 min) and 225 nm for phenytoin (eluted at 1.40 min) with a UV detector (1260 Infinity Multiple Wavelength Detector, Agilent). The standard curve linearity was verified from 0.1 to 1000 μg/mL with an r^2 value of at least 0.999.
Two different drugs, probucol and phenytoin, were formulated at different weight percent, using the polymers disclosed herein (see Table 1 for polymer sample numbers). […]

solubility [1] [µg/mL] | Concentration (phenytoin dissolution control) ([2]; Time 0) [µg/mL] | Concentration (phenytoin dissolution control) ([2]; Time 4) [µg/mL] | Concentration (phenytoin dissolution control) ([2]; Time 10) [µg/mL] | Concentration (phenytoin dissolution control) ([2]; Time 20) [µg/mL] | Concentration (phenytoin dissolution control) ([2]; Time 40) [µg/mL] | Concentration (phenytoin dissolution control) ([2]; Time 90) [µg/mL] | Concentration (phenytoin dissolution control) ([2]; Time 180) [µg/mL] | Concentration (phenytoin dissolution control) ([2]; Time 360) [µg/mL] | Structure (SMILES)
4 (≈ 7.74 µM) |  |  |  |  |  |  |  |  | CC(C)(Sc1cc(C(C)(C)C)c(O)c(C(C)(C)C)c1)Sc1cc(C(C)(C)C)c(O)c(C(C)(C)C)c1 [probucol]
 | 0 | 38 | 46 | 45 | 48 | 51 | 45 | 48 | O=C1NC(=O)C(c2ccccc2)(c2ccccc2)N1 [Phenytoin, phenytoin]
